From patent EP4707277A1, “NOVEL HETEROCYCLIC AMINE DERIVATIVES AND PHARMACEUTICAL COMPOSITION COMPRISING SAME” (Daewoong Pharmaceutical Co., Ltd., priority 2023, dated 2024) come the findings set out here.

Like-named read-outs stand apart in the source and are kept apart here.

One assay concerns the target T1, ITK (Homo sapiens, UniProt Q08881).
T1 construct: purchased Signalchem I13-11G-10
T1 sequence (Q08881 1-620): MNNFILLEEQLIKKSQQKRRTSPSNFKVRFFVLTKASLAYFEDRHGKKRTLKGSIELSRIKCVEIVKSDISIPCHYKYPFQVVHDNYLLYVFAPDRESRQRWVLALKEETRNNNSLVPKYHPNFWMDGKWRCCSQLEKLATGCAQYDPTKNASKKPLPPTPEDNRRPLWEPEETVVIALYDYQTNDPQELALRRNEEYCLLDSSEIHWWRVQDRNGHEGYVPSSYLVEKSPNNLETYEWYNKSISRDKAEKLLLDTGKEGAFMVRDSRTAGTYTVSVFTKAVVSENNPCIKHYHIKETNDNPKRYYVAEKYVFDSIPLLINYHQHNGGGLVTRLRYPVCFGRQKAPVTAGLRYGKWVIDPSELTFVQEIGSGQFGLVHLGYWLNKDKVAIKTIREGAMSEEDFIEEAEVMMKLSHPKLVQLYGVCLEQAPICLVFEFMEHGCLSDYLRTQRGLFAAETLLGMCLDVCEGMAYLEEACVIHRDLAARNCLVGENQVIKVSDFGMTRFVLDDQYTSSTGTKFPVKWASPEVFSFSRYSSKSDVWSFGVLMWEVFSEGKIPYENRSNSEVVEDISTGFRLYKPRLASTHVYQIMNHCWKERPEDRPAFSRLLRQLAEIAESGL
Briefly: Inhibitory activity against ITK, ADP-Glo Kinase system (Promega). Format: biochemical. The method, boiled down: (§1)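 IC50 values were fitted from kinase reactions run for 1 h at 30°C with either 1 mM ATP or ATP at Km (10 µM for BTK, 25 µM for ITK). Reactions used 0.2 µg/µl poly(Glu4,Tyr1), recombinant human enzyme (BTK 10 ng, ITK 4 ng per reaction) in Tris pH 7.5 Mn/Mg buffer with 1% DMSO. ADP formed was read by ADP-Glo luminescence.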

Another assay has as its target T2, BTK (Homo sapiens, UniProt Q06187).
T2 construct: purchased Signalchem B10-10H
The experiment in a line: Inhibitory activity against BTK, ADP-Glo Kinase system (Promega). It counts as biochemical. The method, boiled down:
as §1
Background: In ADP-Glo the light output rises with the ADP produced.

Setting [1] is: 1mM ATP, read-out: ITK IC50(nM) 1mM ATP.
Where [2] appears, read: 1mM ATP, read-out: BTK IC50(nM) 1mM ATP.
The mark [3] stands for this setting: Km ATP (ITK: 25uM), read-out: ITK IC50(nM) Km ATP.
Setting [4] is: Km ATP (BTK: 10 uM), read-out: BTK IC50(nM) Km ATP.

The IC50 is the concentration at which inhibition is half-maximal.

T2 sequence (Q06187 whole entry): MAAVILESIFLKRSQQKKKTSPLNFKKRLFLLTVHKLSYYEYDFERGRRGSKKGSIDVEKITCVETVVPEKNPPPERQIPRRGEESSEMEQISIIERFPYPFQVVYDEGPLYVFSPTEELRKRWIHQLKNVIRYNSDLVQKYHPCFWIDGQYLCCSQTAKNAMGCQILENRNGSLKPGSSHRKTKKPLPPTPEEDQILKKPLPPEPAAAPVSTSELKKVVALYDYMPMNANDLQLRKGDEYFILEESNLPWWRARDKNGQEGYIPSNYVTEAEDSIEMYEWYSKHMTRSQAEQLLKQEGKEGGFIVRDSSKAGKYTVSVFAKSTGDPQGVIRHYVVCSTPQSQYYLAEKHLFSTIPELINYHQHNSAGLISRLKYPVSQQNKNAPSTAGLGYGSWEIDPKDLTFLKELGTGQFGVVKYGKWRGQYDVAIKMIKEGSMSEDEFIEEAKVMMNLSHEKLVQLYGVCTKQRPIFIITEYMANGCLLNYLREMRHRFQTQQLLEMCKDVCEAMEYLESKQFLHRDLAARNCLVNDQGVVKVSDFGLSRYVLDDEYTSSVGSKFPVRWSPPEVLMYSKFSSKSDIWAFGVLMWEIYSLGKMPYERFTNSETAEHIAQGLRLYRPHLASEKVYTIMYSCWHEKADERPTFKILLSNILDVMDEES

With `C=CC(=O)N1CC[C@H](Oc2nc(Nc3ccn(C)n3)cc3c2ccn3C(C)C)C1` [Example 193, (S)-1-(3-((1-isopropyl-6-((1-methyl-1H-pyrazol-3-yl)amino)-1H-pyrrolo[3,2-c]pyridin-4-yl)oxy)pyrrolidin-1-yl)prop-2-en-1-one], the IC50 on ITK (setting [1]) and at BTK (setting [2]) was greater than 500 nM each time.
As for `C=CC(=O)N1CCC1COc1nc(Nc2ncc(C)s2)cc2c1ccn2C1CCCC1` (centres unmarked) [Example 218, 1-(2-(((1-cyclopentyl-6-((5-methylthiazol-2-yl)amino)-1H-pyrrolo[3,2-c]pyridin-4-yl)oxy)methyl)azetidin-1-yl)prop-2-en-1-one], the IC50 at ITK (setting [1]) and at BTK (setting [2]) was no more than 20 nM in each case.
As to `C=CC(=O)N1CC=C(c2nc(Nc3cc(OC)ncn3)cc3c2ccn3C(C)C)CC1` [Example 46, 1-(4-(1-isopropyl-6-((6-methoxypyrimidin-4-yl)amino)-1H-pyrrolo[3,2-c]pyridin-4-yl)-3,6-dihydropyridin-1(2H)-yl)prop-2-en-1-one], the IC50 is 100 to 500 nM at ITK (setting [1]) and no more than 20 nM at BTK (setting [2]).
For the molecule `C=CC(=O)N1CC[C@@H](Oc2nc(Nc3ncc(C)s3)cc3c2ccn3C)C1` [Example 156, (R)-1-(3-((1-methyl-6-((5-methylthiazol-2-yl)amino)-1H-pyrrolo[3,2-c]pyridin-4-yl)oxy)pyrrolidin-1-yl)prop-2-en-1-one], the IC50 on ITK (setting [1]) and on BTK (setting [2]) was greater than 500 nM in each case.
Take `C=CC(=O)N1CC=C(c2nc(Nc3ncc[nH]3)cc3c2ccn3C)CC1` [Example 40, 1-(4-(6-((1H-imidazol-2-yl)amino)-1-methyl-1H-pyrrolo[3,2-c]pyridin-4-yl)-3,6-dihydropyridin-1(2H)-yl)prop-2-en-1-one]: the IC50 is greater than 500 nM on ITK (setting [3]) and 100 to 500 nM at BTK (setting [4]).
On to `C=CC(=O)N1CCC[C@H](Oc2nc(Nc3ncc(C)s3)cc3c2ccn3CC2CCCC2)C1` [Example 169, (S)-1-(3-((1-(cyclopentylmethyl)-6-((5-methylthiazol-2-yl)amino)-1H-pyrrolo[3,2-c]pyridin-4-yl)oxy)piperidin-1-yl)prop-2-en-1-one], for which the IC50 on ITK (setting [1]) is 20 to 100 nM; at BTK (setting [2]), no more than 20 nM.
Regarding `C=CC(=O)N1CC=C(c2nc(Nc3ncc(C)s3)cc3c2ccn3CC2CCC2)CC1` [Example 7, 1-(4-(1-(cyclobutylmethyl)-6-((5-methylthiazol-2-yl)amino)-1H-pyrrolo[3,2-c]pyridin-4-yl)-3,6-dihydropyridin-1(2H)-yl)prop-2-en-1-one], the IC50 at ITK (setting [3]) and at BTK (setting [4]) was no more than 20 nM in each case.
For the molecule `C=CC(=O)N1CC=C(c2nc(Nc3ncc(C)s3)cc3c2ccn3CC(C)C)CC1` [Example 6, 1-(4-(1-isobutyl-6-((5-methylthiazol-2-yl)amino)-1H-pyrrolo[3,2-c]pyridin-4-yl)-3,6-dihydropyridin-1(2H)-yl)prop-2-en-1-one], the IC50 at ITK (setting [1]) is 100 to 500 nM; at ITK (setting [3]) it was no more than 20 nM; at BTK (setting [2]), 20 to 100 nM; on BTK (setting [4]), no more than 20 nM.
Consider `C=CC(=O)N1CC(Oc2nc(Nc3ncc(C)s3)cc3c2ccn3CC2CC2)C1` [Example 145, 1-(3-((1-(cyclopropylmethyl)-6-((5-methylthiazol-2-yl)amino)-1H-pyrrolo[3,2-c]pyridin-4-yl)oxy)azetidin-1-yl)prop-2-en-1-one], for which the IC50 at ITK (setting [1]) and on BTK (setting [2]) was no more than 20 nM each time.
Turning to `C=CC(=O)N1CC(C)(Oc2nc(Nc3ncc(C)s3)cc3c2ccn3CC2CCCC2)C1` [Example 178, 1-(3-((1-(cyclopentylmethyl)-6-((5-methylthiazol-2-yl)amino)-1H-pyrrolo[3,2-c]pyridin-4-yl)oxy)-3-methylazetidin-1-yl)prop-2-en-1-one], the IC50 at ITK (setting [1]) and at BTK (setting [2]) was no more than 20 nM throughout.
Regarding `C=CC(=O)N1C[C@@H](F)[C@H](Oc2nc(Nc3ncc(C)s3)cc3c2ccn3C2CCCC2)C1` [Example 110, 1-((3R,4R)-3-((1-cyclopentyl-6-((5-methylthiazol-2-yl)amino)-1H-pyrrolo[3,2-c]pyridin-4-yl)oxy)-4-fluoropyrrolidin-1-yl)prop-2-en-1-one], the IC50 at ITK (setting [1]) and at BTK (setting [2]) was no more than 20 nM in each case.
`C=CC(=O)N1CC=C(c2nc(Nc3ncc(C)s3)cc3c2ccn3[C@H](C)C(F)(F)F)CC1` [Example 24, (R)-1-(4-(6-((5-methylthiazol-2-yl)amino)-1-(1,1,1-trifluoropropan-2-yl)-1H-pyrrolo[3,2-c]pyridin-4-yl)-3,6-dihydropyridin-1(2H)-yl)prop-2-en-1-one]: the IC50 at ITK (setting [1]) is 20 to 100 nM; on BTK (setting [2]), no more than 20 nM.
For `C=CC(=O)N1C[C@H](F)[C@H](Oc2nc(Nc3cc[nH]n3)cc3c2ccn3CC(C)C)C1` [Example 195, 1-((3R,4S)-3-((6-((1H-pyrazol-3-yl)amino)-1-isobutyl-1H-pyrrolo[3,2-c]pyridin-4-yl)oxy)-4-fluoropyrrolidin-1-yl)prop-2-en-1-one] the same measures were 100 to 500 nM and 20 to 100 nM.
For the molecule `C=CC(=O)N1CCC[C@@H](COc2nc(Nc3ncc(C)s3)cc3c2ccn3CC(C)C)C1` [Example 214, (R)-1-(3-(((1-isobutyl-6-((5-methylthiazol-2-yl)amino)-1H-pyrrolo[3,2-c]pyridin-4-yl)oxy)methyl)piperidin-1-yl)prop-2-en-1-one], the IC50 at ITK (setting [1]) is greater than 500 nM; on BTK (setting [2]) it was 20 to 100 nM.
The matching figures for `C=CC(=O)N1C[C@@H](Oc2nc(Nc3ncc(C)s3)cc3c2ccn3CC2CC2)C[C@H]1C` [Example 98, 1-((2R,4S)-4-((1-(cyclopropylmethyl)-6-((5-methylthiazol-2-yl)amino)-1H-pyrrolo[3,2-c]pyridin-4-yl)oxy)-2-methylpyrrolidin-1-yl)prop-2-en-1-one]: no more than 20 nM and no more than 20 nM.
With `C=CC(=O)N1CC=C(c2nc(Nc3nc(C)cs3)cc3c2ccn3C(C)C)CC1` [Example 42, 1-(4-(1-isopropyl-6-((4-methylthiazol-2-yl)amino)-1H-pyrrolo[3,2-c]pyridin-4-yl)-3,6-dihydropyridin-1(2H)-yl)prop-2-en-1-one], the IC50 on ITK (setting [3]) and on BTK (setting [4]) was greater than 500 nM each time.
In the case of `C=CC(=O)N1CC(Oc2nc(Nc3ncc(C)s3)cc3c2ccn3CC(C)C)C1` [Example 118, 1-(3-((1-isobutyl-6-((5-methylthiazol-2-yl)amino)-1H-pyrrolo[3,2-c]pyridin-4-yl)oxy)azetidin-1-yl)prop-2-en-1-one], the IC50 at ITK (setting [3]) and on BTK (setting [4]) was 20 to 100 nM each time.
As to `C=CC(=O)N1CC(C)(Oc2nc(Nc3ncc(C)s3)cc3c2ccn3C)C1` [Example 166, 1-(3-methyl-3-((1-methyl-6-((5-methylthiazol-2-yl)amino)-1H-pyrrolo[3,2-c]pyridin-4-yl)oxy)azetidin-1-yl)prop-2-en-1-one], the IC50 at ITK (setting [1]) and at BTK (setting [2]) was no more than 20 nM each time.
`C=CC(=O)N1C2C=C(c3nc(Nc4ncc(C)s4)cc4c3ccn4CC(C)C)CC1CC2` (centres unmarked) [Example 32, 1-(3-(1-isobutyl-6-((5-methylthiazol-2-yl)amino)-1H-pyrrolo[3,2-c]pyridin-4-yl)-8-azabicyclo[3.2.1]oct-2-en-8-yl)prop-2-en-1-one]: the IC50 on ITK (setting [1]), at ITK (setting [3]), at BTK (setting [2]) and on BTK (setting [4]) was no more than 20 nM each time.
Turning to `C=CC(=O)N1CC=C(c2nc(Nc3ncc(C)s3)cc3c2ccn3CC2CCOC2)CC1` (centres unmarked) [Example 8, 1-(4-(6-((5-methylthiazol-2-yl)amino)-1-((tetrahydrofuran-3-yl)methyl)-1H-pyrrolo[3,2-c]pyridin-4-yl)-3,6-dihydropyridin-1(2H)-yl)prop-2-en-1-one], the IC50 on ITK (setting [3]) and on BTK (setting [4]) was no more than 20 nM each time.
In the case of `C#CC(=O)N1C[C@H](F)[C@H](Oc2nc(Nc3ncc(C)s3)cc3c2ccn3CC(C)C)C1` [Example 231, 1-((3S,4R)-3-fluoro-4-((1-isobutyl-6-((5-methylthiazol-2-yl)amino)-1H-pyrrolo[3,2-c]pyridin-4-yl)oxy)pyrrolidin-1-yl)prop-2-yn-1-one], the IC50 on ITK (setting [1]) and at BTK (setting [2]) was no more than 20 nM each time.
As to `C=CC(=O)N1CC[C@H](Oc2nc(Nc3ncc(C)s3)cc3c2ccn3Cc2ccccc2)C1` [Example 121, (S)-1-(3-((1-benzyl-6-((5-methylthiazol-2-yl)amino)-1H-pyrrolo[3,2-c]pyridin-4-yl)oxy)pyrrolidin-1-yl)prop-2-en-1-one], the IC50 at ITK (setting [3]) and on BTK (setting [4]) was no more than 20 nM each time.
For the molecule `C=CC(=O)N1CC[C@H](Oc2nc(Nc3ncc(C)s3)cc3c2ccn3C)C1` [Example 130, (S)-1-(3-((1-methyl-6-((5-methylthiazol-2-yl)amino)-1H-pyrrolo[3,2-c]pyridin-4-yl)oxy)pyrrolidin-1-yl)prop-2-en-1-one], the IC50 at ITK (setting [1]) and at BTK (setting [2]) was no more than 20 nM in each case.
